Measurements taken from paper PMC4144829 (Nature chemical biology, 2014).
Like-named read-outs stand apart in the source and are kept apart here.

Tests used:
[1] = tested on: human USP1-UAF1; conditions: cited from earlier work
[2] = target: NEDP1 (Homo sapiens, UniProt Q96LD8); experiment: in vitro deneddylase selectivity; type: biochemical
[3] = tested on: USP1 shRNA knockout H596 cell strain; experiment: colony-forming assay in USP1 shRNA cells; type: cell-based, human
[4] = target: USP11 (Homo sapiens, UniProt P51784); experiment: in vitro DUB selectivity; type: biochemical
[5] = target: USP14 (Homo sapiens, UniProt P54578); experiment: in vitro DUB selectivity
Sequence of USP14 (P54578 whole entry): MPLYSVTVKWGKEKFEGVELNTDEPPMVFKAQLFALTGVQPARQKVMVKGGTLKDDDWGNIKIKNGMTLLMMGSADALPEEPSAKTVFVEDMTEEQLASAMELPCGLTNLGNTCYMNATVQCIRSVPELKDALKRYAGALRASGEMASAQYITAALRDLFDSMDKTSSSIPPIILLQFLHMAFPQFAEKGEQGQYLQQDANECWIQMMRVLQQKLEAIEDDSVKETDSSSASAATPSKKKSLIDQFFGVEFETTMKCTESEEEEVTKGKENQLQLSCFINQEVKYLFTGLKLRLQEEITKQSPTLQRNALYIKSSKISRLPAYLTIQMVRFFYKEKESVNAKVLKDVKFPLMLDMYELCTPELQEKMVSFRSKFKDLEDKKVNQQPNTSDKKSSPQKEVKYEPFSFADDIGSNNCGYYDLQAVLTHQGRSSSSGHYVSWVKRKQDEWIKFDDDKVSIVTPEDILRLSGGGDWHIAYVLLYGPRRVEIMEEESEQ

[6] = target: SENP1 (Homo sapiens, UniProt Q9P0U3); experiment: in vitro deSUMOylase selectivity; type: biochemical
[7] = target: USP5 (Homo sapiens, UniProt P45974); experiment: in vitro DUB selectivity; type: biochemical
Sequence of USP5 (P45974 whole entry): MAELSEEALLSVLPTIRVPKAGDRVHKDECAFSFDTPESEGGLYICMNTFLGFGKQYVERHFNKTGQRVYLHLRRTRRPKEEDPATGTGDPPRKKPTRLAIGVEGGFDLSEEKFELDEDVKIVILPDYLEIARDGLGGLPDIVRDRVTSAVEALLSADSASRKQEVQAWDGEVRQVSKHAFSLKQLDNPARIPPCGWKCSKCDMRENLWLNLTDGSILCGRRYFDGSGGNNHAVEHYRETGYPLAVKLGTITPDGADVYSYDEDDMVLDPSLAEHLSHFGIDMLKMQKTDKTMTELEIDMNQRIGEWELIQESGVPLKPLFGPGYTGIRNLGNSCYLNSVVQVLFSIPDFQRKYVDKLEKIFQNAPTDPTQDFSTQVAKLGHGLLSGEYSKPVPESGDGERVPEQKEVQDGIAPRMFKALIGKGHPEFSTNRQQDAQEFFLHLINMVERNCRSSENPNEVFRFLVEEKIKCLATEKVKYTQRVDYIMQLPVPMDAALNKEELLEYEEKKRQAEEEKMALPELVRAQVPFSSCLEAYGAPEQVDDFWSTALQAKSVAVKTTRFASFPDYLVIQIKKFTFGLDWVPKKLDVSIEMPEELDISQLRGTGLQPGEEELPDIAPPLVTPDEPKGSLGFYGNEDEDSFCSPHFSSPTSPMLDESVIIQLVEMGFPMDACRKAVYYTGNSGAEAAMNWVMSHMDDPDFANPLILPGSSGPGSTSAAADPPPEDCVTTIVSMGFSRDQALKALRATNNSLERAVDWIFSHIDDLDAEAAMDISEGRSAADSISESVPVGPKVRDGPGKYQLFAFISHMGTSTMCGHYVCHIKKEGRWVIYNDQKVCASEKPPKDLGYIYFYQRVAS

[8] = target: T1, USP1-UAF1 (Homo sapiens, UniProt O94782); experiment: HA-Ub-VME labeling of purified USP1-UAF1; conditions: biochemical assay
T1 sequence (O94782 whole entry): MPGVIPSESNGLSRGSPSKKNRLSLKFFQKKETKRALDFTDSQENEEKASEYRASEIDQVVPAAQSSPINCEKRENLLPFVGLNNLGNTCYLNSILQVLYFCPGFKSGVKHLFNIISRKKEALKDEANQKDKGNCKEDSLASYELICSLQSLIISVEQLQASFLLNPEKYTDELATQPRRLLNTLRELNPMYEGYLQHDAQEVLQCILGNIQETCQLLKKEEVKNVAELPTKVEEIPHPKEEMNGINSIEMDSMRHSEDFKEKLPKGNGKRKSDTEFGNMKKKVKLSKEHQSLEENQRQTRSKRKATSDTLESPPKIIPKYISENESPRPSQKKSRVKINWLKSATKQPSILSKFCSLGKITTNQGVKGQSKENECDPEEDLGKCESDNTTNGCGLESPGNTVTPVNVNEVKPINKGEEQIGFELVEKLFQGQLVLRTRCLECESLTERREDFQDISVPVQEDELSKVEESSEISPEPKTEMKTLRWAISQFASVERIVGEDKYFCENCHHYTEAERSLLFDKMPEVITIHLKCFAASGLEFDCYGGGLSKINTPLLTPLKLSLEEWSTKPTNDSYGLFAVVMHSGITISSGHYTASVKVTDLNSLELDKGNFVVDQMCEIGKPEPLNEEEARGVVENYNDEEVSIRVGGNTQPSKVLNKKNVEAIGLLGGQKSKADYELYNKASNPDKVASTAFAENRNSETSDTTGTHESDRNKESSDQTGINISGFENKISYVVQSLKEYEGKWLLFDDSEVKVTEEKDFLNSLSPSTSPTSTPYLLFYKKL
T1 sequence (Q8TAF3 whole entry partner): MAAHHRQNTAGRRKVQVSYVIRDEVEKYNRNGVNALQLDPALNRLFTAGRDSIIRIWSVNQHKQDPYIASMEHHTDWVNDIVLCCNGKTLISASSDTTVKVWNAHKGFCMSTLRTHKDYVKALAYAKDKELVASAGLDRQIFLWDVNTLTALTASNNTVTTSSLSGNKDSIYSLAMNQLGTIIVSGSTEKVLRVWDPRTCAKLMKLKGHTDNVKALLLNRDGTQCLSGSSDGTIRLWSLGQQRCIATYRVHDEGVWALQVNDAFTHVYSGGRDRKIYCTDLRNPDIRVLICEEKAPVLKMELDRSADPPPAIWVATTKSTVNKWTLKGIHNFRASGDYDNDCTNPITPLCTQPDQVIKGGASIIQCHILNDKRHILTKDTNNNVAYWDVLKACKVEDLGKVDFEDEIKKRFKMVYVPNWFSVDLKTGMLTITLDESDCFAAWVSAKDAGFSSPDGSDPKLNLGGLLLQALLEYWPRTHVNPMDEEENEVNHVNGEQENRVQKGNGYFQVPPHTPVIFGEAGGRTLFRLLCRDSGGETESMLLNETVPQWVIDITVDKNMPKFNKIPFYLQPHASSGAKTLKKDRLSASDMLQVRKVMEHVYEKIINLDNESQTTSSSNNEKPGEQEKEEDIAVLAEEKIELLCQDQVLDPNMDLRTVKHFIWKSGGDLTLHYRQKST

[9] = target: USP46-UAF1 (Homo sapiens, UniProt P62068); experiment: in vitro DUB selectivity; type: biochemical
Sequence of USP46-UAF1 (P62068 whole entry): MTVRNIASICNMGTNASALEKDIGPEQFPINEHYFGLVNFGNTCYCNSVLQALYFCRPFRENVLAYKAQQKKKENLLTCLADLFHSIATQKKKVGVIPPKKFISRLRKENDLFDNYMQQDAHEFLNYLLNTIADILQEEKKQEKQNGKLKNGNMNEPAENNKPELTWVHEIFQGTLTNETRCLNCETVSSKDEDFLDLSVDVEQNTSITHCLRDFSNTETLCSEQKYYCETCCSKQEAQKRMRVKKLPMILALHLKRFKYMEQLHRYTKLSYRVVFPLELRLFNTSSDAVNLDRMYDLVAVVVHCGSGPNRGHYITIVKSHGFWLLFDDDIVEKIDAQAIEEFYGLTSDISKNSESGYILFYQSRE
Sequence of USP46-UAF1 (Q8TAF3 whole entry partner): as the sequence (Q8TAF3 whole entry partner) above

[10] = tested on: XPV cells; experiment: UV sensitivity colony-forming assay; type: cell-based, human; conditions: 20 μM ML323
[11] = tested on: PD20 + D2 cells; experiment: UV sensitivity colony-forming assay; type: cell-based, human; conditions: with ML323
[12] = target: USP8 (Homo sapiens, UniProt P40818); experiment: in vitro DUB selectivity; type: biochemical
[13] = tested on: DR-U2OS cells; experiment: HR assay; type: cell-based, human; conditions: 30 μM ML323, 2.56% in the absence of ML323
[14] = tested on: H596 cells; experiment: cellular activity assay of USP1-UAF1; type: cell-based, human; conditions: for change in levels of Ub-PCNA and Ub-FANCD2: H596, 6 h, cisplatin 100 μM, ML323 30 μM
[15] = target: USP1 in HEK293T cells (Homo sapiens, UniProt O94782); experiment: cellular activity-based DUB profiling with HA-Ub-VME; type: cell-based; conditions: 100 μM cisplatin, ML323 0.5 to 50 μM
[16] = tested on: USP1 shRNA knockdown H596 cells; experiment: cellular Ub-PCNA level in USP1 shRNA knockdown cells; type: cell-based, human
[17] = target: USP21 (Homo sapiens, UniProt Q9UK80); experiment: in vitro DUB selectivity; type: biochemical
Sequence of USP21 (Q9UK80 209-563): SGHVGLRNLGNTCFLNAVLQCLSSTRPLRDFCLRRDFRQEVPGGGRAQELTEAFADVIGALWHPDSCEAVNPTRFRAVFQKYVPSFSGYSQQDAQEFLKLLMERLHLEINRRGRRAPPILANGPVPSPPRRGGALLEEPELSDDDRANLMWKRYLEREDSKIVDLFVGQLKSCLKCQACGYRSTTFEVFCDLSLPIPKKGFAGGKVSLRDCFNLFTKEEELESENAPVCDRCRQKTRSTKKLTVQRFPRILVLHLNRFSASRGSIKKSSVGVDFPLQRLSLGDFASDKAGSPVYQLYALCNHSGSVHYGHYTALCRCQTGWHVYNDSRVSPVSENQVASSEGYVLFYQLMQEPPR

[18] = tested on: USP8, USP7, CYLD, USP5, USP14, UCH-L3 and UCH-L1 in HEK293T cells; experiment: cellular activity-based DUB profiling with HA-Ub-VME; type: cell-based, human; conditions: 100 μM cisplatin, ML323 0.5 to 50 μM
[19] = tested on: H596 cells; experiment: cell cycle analysis; type: cell-based, human
[20] = tested on: U2OS cells; experiment: FANCD2 subnuclear foci formation; type: cell-based, human; conditions: ML323 30 μM, cisplatin 5 μM, vehicle 13.1%
[21] = target: T1, USP1-UAF1; experiment: inhibition mechanism determination; type: biochemical
[22] = tested on: U2OS cells; experiment: SCE assay; type: cell-based, human; conditions: ML323 30 μM, cisplatin 15 μM, control 0.12
[23] = tested on: 451 kinases; experiment: in vitro kinase profiling; type: biochemical
[24] = tested on: XPV + Polη cells; experiment: UV sensitivity colony-forming assay; conditions: 20 μM ML323
[25] = tested on: PD20 cells; experiment: UV sensitivity colony-forming assay; type: cell-based, human; conditions: 20 μM ML323
[26] = tested on: 70 unrelated proteases; experiment: in vitro protease profiling
[27] = target: T1, USP1-UAF1; experiment: native gel electrophoresis of USP1-UAF1 complex; conditions: up to 100 times its IC50
[28] = target: USP10 (Homo sapiens, UniProt Q14694); experiment: in vitro DUB selectivity
Sequence of USP10 (Q14694 whole entry): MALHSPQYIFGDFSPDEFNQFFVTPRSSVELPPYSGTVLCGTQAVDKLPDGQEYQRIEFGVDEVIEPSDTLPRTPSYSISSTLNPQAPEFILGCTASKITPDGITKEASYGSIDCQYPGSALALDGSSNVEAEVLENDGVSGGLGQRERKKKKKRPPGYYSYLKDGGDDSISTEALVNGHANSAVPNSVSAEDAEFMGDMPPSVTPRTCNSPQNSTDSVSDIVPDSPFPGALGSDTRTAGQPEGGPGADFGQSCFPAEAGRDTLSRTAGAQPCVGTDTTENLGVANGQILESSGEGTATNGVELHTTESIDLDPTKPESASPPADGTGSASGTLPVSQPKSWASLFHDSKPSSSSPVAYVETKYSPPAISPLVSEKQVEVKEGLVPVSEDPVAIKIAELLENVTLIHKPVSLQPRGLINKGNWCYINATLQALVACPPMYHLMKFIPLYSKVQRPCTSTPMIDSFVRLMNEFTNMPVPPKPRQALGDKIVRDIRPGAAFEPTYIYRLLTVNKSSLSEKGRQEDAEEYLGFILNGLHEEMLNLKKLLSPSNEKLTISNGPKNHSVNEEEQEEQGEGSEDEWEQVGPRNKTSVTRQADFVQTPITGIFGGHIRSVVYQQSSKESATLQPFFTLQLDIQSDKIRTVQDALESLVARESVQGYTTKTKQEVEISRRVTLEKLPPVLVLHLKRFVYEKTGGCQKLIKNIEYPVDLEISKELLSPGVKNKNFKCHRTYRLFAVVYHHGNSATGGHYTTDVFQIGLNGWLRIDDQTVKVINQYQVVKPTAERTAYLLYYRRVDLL

[29] = target: T1, USP1-UAF1; experiment: reversibility; type: biochemical; conditions: 100-fold dilution after treatment at ten times the IC50 for 15, 30 and 60 min
[30] = tested on: H596 cells; experiment: colony-forming assay; type: cell-based, human
[31] = target: USP2 (Homo sapiens, UniProt O75604); experiment: in vitro DUB selectivity; type: biochemical
Sequence of USP2 (O75604 259-605): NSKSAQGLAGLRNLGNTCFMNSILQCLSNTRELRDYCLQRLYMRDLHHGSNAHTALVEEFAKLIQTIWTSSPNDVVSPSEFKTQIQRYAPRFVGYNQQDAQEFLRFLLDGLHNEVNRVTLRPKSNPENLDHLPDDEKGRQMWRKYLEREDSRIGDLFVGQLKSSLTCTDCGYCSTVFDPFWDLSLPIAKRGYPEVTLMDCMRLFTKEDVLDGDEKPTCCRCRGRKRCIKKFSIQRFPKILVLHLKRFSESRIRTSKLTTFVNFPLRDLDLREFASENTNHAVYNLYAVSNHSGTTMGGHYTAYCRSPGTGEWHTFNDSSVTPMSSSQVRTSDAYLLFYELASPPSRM

[32] = tested on: DUBs in the UCH, OTU and MJD families; experiment: in vitro DUB profiling
[33] = tested on: H460 cell line; experiment: colony-forming assay; conditions: read-out: EC50 of cell killing; cisplatin-sensitive NSCLC H460
[34] = tested on: PD20 + D2 cells; experiment: cytotoxicity assay; conditions: PD20 + D2, cisplatin alone

Sequence of NEDP1 (Q96LD8 whole entry): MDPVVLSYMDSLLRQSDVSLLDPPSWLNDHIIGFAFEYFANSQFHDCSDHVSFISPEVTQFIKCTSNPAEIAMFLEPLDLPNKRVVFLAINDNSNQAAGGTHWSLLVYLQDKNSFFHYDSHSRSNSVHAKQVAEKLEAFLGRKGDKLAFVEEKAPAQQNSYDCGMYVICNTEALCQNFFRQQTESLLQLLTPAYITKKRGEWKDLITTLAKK

## CC(C)(Sc1ccc(CCN(CCCCC2CCCCC2)C(=O)NC2CCCCC2)cc1)C(=O)O [GW7647]
[1]
  affinity as inhibitor of human USP1-UAF1: low micromolar

## Cc1cnc(-c2ccccc2C(C)C)nc1NCc1ccc(-n2ccnn2)cc1 [ML323]
[2]
  inhibition of NEDP1: did not inhibit
[3]
  sensitization to cisplatin: no further sensitization to cisplatin
[4]
  inhibition of USP11: little to no inhibition
[5]
  inhibition of USP14: little to no inhibition
[6]
  inhibition of SENP1: did not inhibit
[7]
  inhibition of USP5: little to no inhibition
[8]
  labeling of USP1-UAF1 by HA-Ub-VME: inhibited the labeling of USP1-UAF1 by HA-Ub-VME
[9]
  inhibition of USP46-UAF1: did not inhibit
[10]
  LD50 of UV sensitivity: 3.2 J m^−2
[11]
  LD50 of UV sensitivity: 3.4 J m^−2
[12]
  inhibition of USP8: little to no inhibition
[13]
  I-SceI-induced HR frequency: 0.81%
[14]
  change in levels of Ub-PCNA and Ub-FANCD2: increase in the monoubiquitination of PCNA and FANCD2 was also observed
[14]; H596, ML323 alone or in combination with cisplatin
  time to effect on PCNA ubiquitination after treatment: 3 to 6 h
[14]; H596, ML323 alone or with cisplatin
  level of Ub-H2A: did not affect the level of Ub-H2A
[14]; H596, absence or presence of cisplatin, 6 h
  concentration at which increase in Ub-PCNA level is seen: ≥ 5 µM
[15]
  labeling of cellular USP1 by HA-Ub-VME: clear decrease in the intensity of the labeled USP1 band
[16]
  Ub-PCNA level, cisplatin vs combination of ML323 and cisplatin: little difference in Ub-PCNA levels
[17]
  inhibition of USP21: little to no inhibition
[18]
  labeling of other cellular DUBs by HA-Ub-VME: did not inhibit the labeling of the DUBs tested
[19]; H596, ML323 alone 20 μM
  cell cycle delay or arrest: did not result in cell cycle delay or arrest
[20]
  FANCD2 subnuclear foci formation: no substantial change
[21]; Lineweaver-Burk, di-Ub cleavage
  inhibition mechanism: mixed inhibition mechanism
[21]; mixed inhibition
  inhibition constant for the enzyme-substrate complex (K'i): 183 nM
[22]
  SCE events per chromosome: 0.13 SCE events per chromosome
[23]
  inhibition of kinases: no substantial inhibition
[24]
  LD50 of UV sensitivity: 4.7 J m^−2
  decrease of UV LD50 vs UV treatment alone: 42%
[25]
  LD50 of UV sensitivity: 2.8 J m^−2
[26]
  inhibition of other proteases: no substantial inhibition
[27]
  disruption of the USP1-UAF1 complex: ruled out the possibility that ML323 acts as a disruptor of the USP1-UAF1 complex
[28]
  inhibition of USP10: little to no inhibition
[29]
  reversibility of inhibition: reversible inhibitor
[30]; Homo sapiens, NCI-H596, read-out: EC50 of cell killing
  EC50: > 10000 nM
[31]
  inhibition of USP2: little to no inhibition
[32]
  inhibition of DUBs of UCH, OTU and MJD families: little to no inhibition

## N.N.[Cl][Pt][Cl] [cisplatin, reference compound]
[33]
  EC50: 74 nM
[14]
  change in levels of Ub-PCNA and Ub-FANCD2: small increase
[19]; H596, cisplatin 5 μM, ML323 20 μM
  population of cells in S phase: 45%
[20]
  FANCD2 subnuclear foci formation: 59.4%
[22]
  SCE events per chromosome: 0.99 SCE events per chromosome
[34]
  EC50: 12.3 µM
[30]; read-out: EC50 of cell killing, H596, single agent
  EC50: 486 nM

## O=c1[nH]c2ccccc2n1C1CCN(CCCC(c2ccc(F)cc2)c2ccc(F)cc2)CC1 [pimozide]
[1]
  affinity as inhibitor of human USP1-UAF1: low micromolar
